Results on eight compounds are retold here after ChEMBL document CHEMBL1201862, “PubChem BioAssay data set” (2004).

What all share (test): inhibition of tumour cell growth, NCI panel, 48 h
Test [1] relates to HT-29.
Test [2] has as its system OVCAR-8.
Test [3] deals with UACC-62.
Test [4] concerns SF-268.
Test [5] has as its system OVCAR-5.
Test [6] concerns IGROV-1.
Test [7] has as its system OVCAR-4.
In test [8] the test system is HOP-62.
The test system of test [9] is HCC 2998.
Test [10] has as its system NCI-H226.
Test [11] relates to Hs-578T.
Test [12] has as its system U-251.
In test [13] the test system is MDA-N.
In test [14] the test system is COLO 205.
In test [15] the test system is DU-145.
In test [16] the test system is MDA-MB-231.
Test [17] concerns PC-3.
The subject of test [18] is RPMI-8226.
Test [19] has as its system SW-620.

Values joined by “and” are separate entries in the source; they are usually repeats but may differ in a detail not shown here. Identical values can stand only once.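 Five concentrations, 48 hours, 96-well plates. GI50 is the concentration that inhibits growth by half.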 Active and inactive are the calls of the source. Cut-off read from the data, not from the text of the source: active = GI50 up to about 1.1 µM and inactive = higher.

As for `CN(C)C(c1ccccc1)C1COC2Cc3ccccc3C1O2` (stereo not drawn), the GI50 in [1] is 47.5 µM (inactive) and 46.6 µM (inactive); in test [2] it was > 100 µM (inactive); in [3] it was > 100 µM (inactive); in [4], > 100 µM (inactive); in test [5], > 100 µM (inactive); in test [6], > 100 µM (inactive). Moreover, the GI50 was > 100 µM (inactive) in test [7]; > 100 µM (inactive) in test [8]; > 100 µM (inactive) in test [9]; 72.9 µM (inactive) in [10]; 92.3 µM (inactive) in test [11]; > 100 µM (inactive) in test [12]. Moreover, the GI50 in [13] was > 100 µM (inactive); in test [14] it was > 100 µM (inactive); in test [15], > 100 µM (inactive); in test [16], > 100 µM (inactive); in test [17] it was 99.3 µM (inactive) and 76.4 µM (inactive); in test [18] it was > 100 µM (inactive) and 91 µM (inactive).

As to `Nc1nc(Cl)cc(OCC2(CO)CCCCC2)n1`, the GI50 is > 100 µM (inactive) in [1]; 96.6 µM (inactive) in test [2]; > 100 µM (inactive) in test [4]; > 100 µM (inactive) in [5]; > 100 µM (inactive) in test [6]; > 100 µM (inactive) in test [7]. Further, the GI50 is > 100 µM (inactive) in test [8]; 24.8 µM (inactive) in [9]; > 100 µM (inactive) in test [10]; > 100 µM (inactive) in test [11]; > 100 µM (inactive) in [19]; 86.5 µM (inactive) in [12]. Further, the GI50 in [13] was > 100 µM (inactive); in test [15] it was > 100 µM (inactive); in test [17], > 100 µM (inactive); in test [18], 60.5 µM (inactive).

Take `CN(C)c1ccc(C2CC(=O)CC(c3ccc(N(C)C)cc3)C23C(=O)NC(=S)NC3=O)cc1` (stereo not drawn): the GI50 is > 100 µM (inactive) in [1]; > 100 µM (inactive) in [3]; 33.2 µM (inactive) in test [4]; > 100 µM (inactive) in test [5]; > 100 µM (inactive) in test [7]; 18 µM (inactive) in test [8]. In addition, the GI50 in test [9] is 99.3 µM (inactive); in test [10], > 100 µM (inactive); in test [11] it was 30.2 µM (inactive); in [19], > 100 µM (inactive); in test [12], 30.6 µM (inactive); in test [13], > 100 µM (inactive). Also, the GI50 in test [14] was > 100 µM (inactive); in [15], > 100 µM (inactive); in [16], 36 µM (inactive); in test [17], > 100 µM (inactive); in test [18], > 100 µM (inactive).

For the compound `CN1CCN(C2=C(Cl)C3(OCCS3)C(F)(F)C2(F)F)CC1` (stereo not drawn), the GI50 in test [1] is 39.4 µM (inactive); in test [2] it was > 100 µM (inactive); in test [3], > 100 µM (inactive); in test [4] it was > 100 µM (inactive); in test [5], > 100 µM (inactive); in [6], > 100 µM (inactive). Besides, the GI50 is > 100 µM (inactive) in test [7]; 46.9 µM (inactive) in test [8]; > 100 µM (inactive) in test [10]; > 100 µM (inactive) in test [11]; > 100 µM (inactive) in [19]; 39.8 µM (inactive) in test [12]. For the same compound, the GI50 in test [13] was > 100 µM (inactive); in test [14] it was 43.4 µM (inactive); in [15], > 100 µM (inactive); in test [16], 82 µM (inactive); in [18], 44.5 µM (inactive).

For the compound `CC(C)(Oc1ccccc1)C(=O)Sc1c(-c2ccccc2)c(=O)n(-c2ccccc2)c(=S)n1-c1ccccc1`, the GI50 was 50.9 µM (inactive) in test [1]; 18.6 µM (inactive) in test [2]; 80 µM (inactive) in test [3]; 26.9 µM (inactive) in test [4]; 75.3 µM (inactive) in test [5]; 22.6 µM (inactive) in test [6]. Moreover, the GI50 was 32.9 µM (inactive) in [7]; 22 µM (inactive) in test [8]; 46.8 µM (inactive) in [9]; 31.1 µM (inactive) in [10]; 24.2 µM (inactive) in test [11]; 88.3 µM (inactive) in test [19]. The GI50 in [12] was 21.6 µM (inactive); in [13] it was 56.8 µM (inactive); in [14], 39.8 µM (inactive); in test [15], 95.9 µM (inactive); in [16] it was 28.8 µM (inactive).

For `CC[C@]12C=CCN3CCC4(c5cc([C@@]6(C(=O)OC)CC7CN(CCc8c6[nH]c6ccccc86)CC6CCCCC67)c(OC)cc5N(C)C4[C@](O)(C(=O)OC)C1OC(C)=O)[C@@H]32` (stereo partly drawn), the GI50 in test [1] was < 0.01 µM (active); in test [2], < 0.015 µM (active); in [3], < 0.01 µM (active); in [4], < 0.01 µM (active); in test [5] it was 0.021 µM (active); in test [6], < 0.01 µM (active). Moreover, the GI50 in test [7] was 3.38 µM (inactive); in test [8], < 0.01 µM (active); in test [9], < 0.01 µM (active); in test [10], < 0.01 µM (active); in [11] it was < 0.01 µM (active); in [19], < 0.01 µM (active). For the same compound, the GI50 in [12], in [13], in [14], in [15], in [16] and in [17] was < 0.01 µM (active) in each case. Moreover, the GI50 in test [18] was < 0.01 µM (active).

Turning to `C[n+]1c(-c2ccc(/C=N/Nc3ccnc(N/N=C/c4ccc(-c5cn6ccccc6[n+]5C)cc4)n3)cc2)cn2ccccc21`, the GI50 was 24.7 µM (inactive) in test [1]; 82.4 µM (inactive) in test [2]; 88.9 µM (inactive) in [4]; 60.4 µM (inactive) in [5]; 39.3 µM (inactive) in [6]; > 100 µM (inactive) in test [7]. Further, the GI50 was 43.2 µM (inactive) in test [8]; > 100 µM (inactive) in [9]; 30.5 µM (inactive) in [11]; 71.1 µM (inactive) in test [19]; 28.9 µM (inactive) in test [13]; 94 µM (inactive) in test [14]. Further, the GI50 in [16] is > 100 µM (inactive); in test [17], > 100 µM (inactive); in test [18], 23.5 µM (inactive).

Consider `C/C=C/C1=C(Cl)C(=O)[C@@H](Cl)[C@@]1(O)C(=O)OC` [(+)-CRYPTOSPORIPSIN], for which the GI50 was 3.46 µM (inactive) in test [1]; 2.08 µM (inactive) in test [2]; 1.65 µM (inactive) in test [3]; 10.6 µM (inactive) in [4]; 11.2 µM (inactive) in test [5]; 5.38 µM (inactive) in test [6]. Also, the GI50 in test [7] was 2.09 µM (inactive); in test [8], 1.52 µM (inactive); in test [9], 3.28 µM (inactive); in [10], 10.2 µM (inactive); in test [19] it was 1.06 µM (active); in test [12] it was 5.02 µM (inactive). Besides, the GI50 in test [14] was 1.5 µM (inactive); in test [18], 2.28 µM (inactive).
